This note sets out measurements from article PMC11109052, “Metabolism characterization and toxicity of N-hydap, a marine candidate drug for lung cancer therapy by LC–MS method” (Natural Products and Bioprospecting, 2024).

Data set [1] can be described thus: Pharmacokinetics studies in mice (plasma). The class given is in vivo. As for the experimental part:
Mice were fasted for 12 h with access to water before drug administration. N-Hydap was dissolved in a solution containing 50% methanol and water. Before administration, the drug was diluted with PBS to achieve concentrations of 5 mg/kg and 2 mg/kg for gastric gavage and tail vein administration, respectively. Blood samples (120 μL) were collected from the orbital venous plexus at 2, 5, 10, 15, 30, 60, 90, 120, 180, and 240 min after N-hydap administration. The blood samples were collected into heparinized micro-centrifuge tubes and immediately centrifuged at 8000 rpm for 5 min at 4 °C. Plasma samples were prepared by adding an internal standard (IS) solution, Tes to the samples, followed by vortexing. The mixtures were then centrifuged at 4 °C and 13,000 rpm for 15 min. The resulting supernatant was dried under vacuum for 3–4 h, and the dry powder was reconstituted with a solution of 50% methanol and water. Finally, the plasma samples were analyzed using LC–MS, following the previously described method.
DAS 2.0 was used to calculate pharmacokinetic parameters using the standard non-compartmental method. All results were presented as mean ± standard deviation and significant differences were analyzed using One-way ANOVA by GraphPad Prism 8. Statistical significance was defined as p < 0.05.

In another data set the test system is Cyp2b10. The data set can be described thus: Real-time PCR mRNA level after 7 days gavage: Cyp2b10. The class given is in vivo. The note with it: mice, 2, 5, 10 mg/kg p.o. 7 days. As for the experimental part: Mice were randomly divided into four groups, with eight animals in each group. The mice received oral pretreatment with N-hydap for 7 days at doses of 2, 5, and 10 mg/kg/day, which were considered as the low dose, medium dose, and high dose, respectively. Correspondingly, the control group received PBS. On the 8th day, the liver and kidneys were removed, and organs from eight mice per group were combined to prepare MLMs and MKMs using the detailed procedures above. Subsequently, we determined the activity of CYP and UGT enzymes by specific substrate metabolized with MLMs (0.5 mg/mL) and MKMs (0.2 mg/mL) in vitro. […] In the ex vivo experiments, the activity of enzymes was measured by quantifying the production of various metabolites (nM/mg protein/min). […] The measurements were performed using multiple reaction monitoring (MRM) transitions, which are specific mass spectrometry transitions used for quantification. […]
Total RNA from liver and kidney samples taken after 7 days of N-hydap gavage was extracted using the Animal Total RNA Isolation Kit (Foregene, Chengdu, Sichuan, China) following the manufacturer’s instructions. The concentrations of total RNA were determined by a nucleic acid concentration tester at 260/280 nm. […]
(Real-time PCR tracks product formation cycle by cycle.)

Another data set concerns CYP2C19. Description: DME activity ex vivo in MLMs and MKMs: CYP2C19 (4-OH-MP from MP). On the set-up: species or system mice; key to CYP2C19 Enzymatic activity: ↑: up-regulation; ↓: down-regulation; –: no change. As for the experimental part:
Mice were randomly divided into four groups, with eight animals in each group. The mice received oral pretreatment with N-hydap for 7 days at doses of 2, 5, and 10 mg/kg/day, which were considered as the low dose, medium dose, and high dose, respectively. Correspondingly, the control group received PBS. On the 8th day, the liver and kidneys were removed, and organs from eight mice per group were combined to prepare MLMs and MKMs using the detailed procedures above. Subsequently, we determined the activity of CYP and UGT enzymes by specific substrate metabolized with MLMs (0.5 mg/mL) and MKMs (0.2 mg/mL) in vitro. Specifically, the following selective substrates were used for the respective enzymes: PH (1 μM) for CYP1A2, DIC (1 μM) for CYP2C9, MP (90 μM) for CYP2C19, DM (1 μM) for CYP2D6, CZX (10 μM) for CYP2E1, Tes (1 μM) for CYP3A4, SN38 (1 μM) for UGT1A1, CACD (100 μM) for UGT1A3, Sero (20 μM) for UGT1A6, and Prop (1 μM) for UGT1A9. All substrates were dissolved in methanol or DMSO. The incubation procedure was carried out as mentioned above, and the reaction was terminated with VER (20 ng/mL) in ESI+ mode and CLP (200 ng/mL) in ESI− mode. In the ex vivo experiments, the activity of enzymes was measured by quantifying the production of various metabolites (nM/mg protein/min). The metabolites and their corresponding enzymes are as follows: APAP from PH, 4-OH-DIC from DIC, 4-OH-MP from MP, DXO from DM, 6-OH-CZX from CZX, 6-OH-Tes from Tes, SN38-G from SN38, CACD-G from CACD, Sero-G from Sero, Prop-G from Prop. The measurements were performed using multiple reaction monitoring (MRM) transitions, which are specific mass spectrometry transitions used for quantification. The optimized parameters for each metabolite, such as declustering potential and collision energy, were described in Supplementary Table 1. All experiments were conducted in triplicate, to ensure accuracy and reproducibility.

The mark [2] stands for this setting: mouse, plasma, iv, mice, tail vein injection 2 mg/kg.
[3] abbreviates: mouse, plasma, mice, oral administration 5 mg/kg.

A word on the AUC(0-t): it is exposure summed from dosing to a finite time, without extrapolation to infinity. One may read the Cmax as the highest concentration seen after dosing. What is called Tmax is the time at which the peak concentration occurs. By bioavailability is commonly meant the share of a dose that reaches the circulation, judged against a reference dose that is usually intravenous.

Like-named read-outs stand apart in the source and are kept apart here.

`CC1CCC2C(C=CC(C)C2C(=O)c2c(O)c(C3(O)CCC(O)C4OC43)cn(O)c2=O)C1` (stereo not drawn) [N-hydap, N-Hydroxyapiosporamide]: the “CL, experimental results” value in data set [1] (Table 4 experimental column) was “High clearance”. Further, the CLz/F in data set [1] (mice, tail vein injection 2 mg/kg) was 0.031 ± 0.001 L/min/kg. In addition, the values for the AUC(0-t) in data set [1] (setting [2]) and in data set [1] (setting [3]) were 2.36 µM·h and 1.41 µM·h, respectively. Also, the highest concentration (Cmax) in data set [1] (setting [2]) was 4.79 ± 0.726 µM; in data set [1] (setting [3]) it was 2.06 ± 0.951 µM. Besides, the time of peak concentration (Tmax) in data set [1] (setting [2]) is 3 min; in data set [1] (setting [3]), 15 min. Also, the half-life in data set [1] (mouse, plasma, iv, mice, tail vein injection 2 mg/kg, read-out: t1/2z) is 61.2 ± 14.2 min; in data set [1] (mouse, plasma, Table 4 experimental column, read-out: T1/2, experimental results) it was less than 60 min; in data set [1] (mouse, plasma, mice, oral administration 5 mg/kg, read-out: t1/2z), 57.6 ± 12.7 min. Besides, in data set [1] (mouse, plasma, mice, oral 5 mg/kg vs tail vein 2 mg/kg, read-out: F (oral bioavailability)), the bioavailability is 24%. Moreover, in data set [1] (mouse, plasma, mice, oral administration 5 mg/kg, read-out: CLz/F), the CL/F was 134 ± 39 mL/min/kg. Further, in the data set on Cyp2b10 (kidneys), the “mRNA levels of Cyp2b10” value is listed as “slight reduction”. Also, the “decrease of mRNA levels of Cyp2b10” value with Cyp2b10 (liver) is 35%. In addition, the “CYP2C19 Enzymatic activity” value is “–” in the data set with CYP2C19 (Kidney) and “↓” with CYP2C19 (Liver). Besides, in the data set on CYP2C19 (liver microsomes of mice pretreated 7 days p.o.), the “reduction of formation rate of 4-OH-MP vs control” value is recorded as 33%.
